Tests used:
[1] = target: T1, β1-receptors of the heart (Canis lupus familiaris, UniProt P79148); assay: Blocking of Isoproterenol-induced increase of maximum rate of left-ventricular pressure rise (Dp/dt max.) in anaesthetised dogs (β1-receptor inhibition); type: in vivo, mongrel dogs; settings: for ED50: dog, intravenous, 50 % inhibition of reaction to Isoproterenol 0.5 gamma/kg i.v., anaesthetised dogs, read-out: β1-receptor inhibition ED 50; for Quotient: ED 50 β2-receptor inhibition / ED 50 β1-receptor inhibition: measure of cardioselective action, higher = better; for Relative β1-receptor inhibition (reference substance = 100): relative ED 50, Practolol = 100, lower = more active; for Quotient, on basis of reference substance = 1: relative cardioselectivity factor, Practolol = 1
T1 construct: from tissue; host or cells: heart (left ventricle) of the living anaesthetised mongrel dog
Description: (§1) The blocking action of the compounds according to the invention on the β1-receptors of the heart and on the β2-receptors of the cardiovascular system was investigated as follows: the blood pressure in the left-hand ventricle was measured on mongrel dogs of both sexes under anaesthesia by Chloralose-urethane-morphine and the pressure signal was continuously differentiated by means of an analogue computer (BRUSH Instruments, Cleveland/Ohio) and, inter alia, the rate of pressure increase (Dp/dt) was recorded. In addition, the perfusion of a femoral artery was measured by means of an electromagnetic flow meter (Model […] of Messrs. Statham) and the perfusion was recorded in ml/minutes. […] DUNLOP and […]: Selective blockade of adrenoceptive beta-receptors in the heart. Brit. J. Pharmac. Chemother. (1968) 32, 201-218). The substances to be tested for β-receptor blocking were administered intravenously in increasing dosages to the animals, which had been anaesthetised and stimulated by means of Isoproterenol, and the quantity of substance was determined at which a 50 % inhibition of the two reactions caused by Isoproterenol occurred (ED50). […] The higher this quotient is, the better the cardioselective action.

[2] = target: T2, β2-receptors of the cardiovascular system (Canis lupus familiaris, UniProt P54833); assay: Blocking of Isoproterenol-induced alteration of peripheral perfusion of the femoral artery in anaesthetised dogs (β2-receptor inhibition); type: in vivo, mongrel dogs; settings: for ED50: dog, intravenous, 50 % inhibition of reaction to Isoproterenol 0.05 gamma/kg intra-arterial, anaesthetised dogs, read-out: β2-receptor inhibition ED 50; for Relative β2-receptor inhibition (reference substance = 100): relative ED 50, Practolol = 100
T2 construct: from tissue; host or cells: femoral vascular bed of the living anaesthetised mongrel dog
Description: as §1

T1 sequence (P79148 whole entry): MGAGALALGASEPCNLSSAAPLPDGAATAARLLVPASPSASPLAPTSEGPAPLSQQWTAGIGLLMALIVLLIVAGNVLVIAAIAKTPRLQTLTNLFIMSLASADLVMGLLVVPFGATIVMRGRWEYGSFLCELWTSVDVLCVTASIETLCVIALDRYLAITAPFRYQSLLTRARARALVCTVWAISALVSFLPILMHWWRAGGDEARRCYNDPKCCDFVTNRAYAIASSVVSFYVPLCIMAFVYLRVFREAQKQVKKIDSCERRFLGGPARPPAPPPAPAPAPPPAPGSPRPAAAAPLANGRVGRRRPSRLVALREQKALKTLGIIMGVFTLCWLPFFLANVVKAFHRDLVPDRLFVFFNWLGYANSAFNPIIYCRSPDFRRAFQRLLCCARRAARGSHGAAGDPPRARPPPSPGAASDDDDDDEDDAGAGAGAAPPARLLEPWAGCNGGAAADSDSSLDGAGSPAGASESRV
T2 sequence (P54833 whole entry, the tested form may be a part): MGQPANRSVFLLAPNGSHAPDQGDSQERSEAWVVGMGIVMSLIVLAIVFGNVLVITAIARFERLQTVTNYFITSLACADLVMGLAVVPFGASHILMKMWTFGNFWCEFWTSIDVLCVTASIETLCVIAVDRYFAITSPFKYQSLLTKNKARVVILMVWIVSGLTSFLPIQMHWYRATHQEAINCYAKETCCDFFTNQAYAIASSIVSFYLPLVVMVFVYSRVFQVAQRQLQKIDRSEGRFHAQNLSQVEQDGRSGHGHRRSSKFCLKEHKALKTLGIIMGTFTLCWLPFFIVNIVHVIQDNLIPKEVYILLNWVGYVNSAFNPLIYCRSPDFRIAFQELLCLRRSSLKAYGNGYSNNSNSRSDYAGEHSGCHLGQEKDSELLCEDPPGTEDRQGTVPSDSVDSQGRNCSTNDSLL

| Structure (SMILES) | ED50 [1] | Quotient: ED 50 β2-receptor inhibition / ED 50 β1-receptor inhibition [1] | Relative β1-receptor inhibition (reference substance = 100) [1] | Quotient, on basis of reference substance = 1 [1] | ED50 [2] | Relative β2-receptor inhibition (reference substance = 100) [2] |
| --- | --- | --- | --- | --- | --- | --- |
| CC(=O)Nc1ccc(OCC(O)CNC(C)CC(O)c2ccc(C)nc2)cc1 (centres unmarked) [1-(p-Acetamino-phenoxy)-3-(1-[6-methyl-pyridyl-3]-1-hydroxy-butyl-(3)-amino)-propan-2-ol] | 0.012 mg/kg | 165 | 5.04 | 1.5 | 1.99 mg/kg | 7.5 |
| CC(=O)Nc1ccc(OCC(O)CNC(C)C)cc1 (centres unmarked) [4-(2-Hydroxy-3-isopropylamino-propoxy)-acetanilide, reference compound] | 0.238 mg/kg | 110 | 100 | 1 | 26.5 mg/kg | 100 |
| CCCOc1ccc(OCC(O)CNC(C)CC(O)c2ccc(C)nc2)cc1 (centres unmarked) [1-(4-n-Propoxy-phenoxy)-3-(1-[6-methyl-pyridyl-3]-1-hydroxy-butyl-(3)-amino)-propan-2-ol] | 0.011 mg/kg | 171 | 4.6 | 1.5 | 1.8 mg/kg | 6.8 |
| CCCCOc1ccc(OCC(O)CNC(C)CC(O)c2ccc(C)nc2)cc1 (centres unmarked) [1-(4n-Butoxy-phenoxy)-3-(1-[6-methyl-pyridyl-3]-1-hydroxy-butyl-(3)-amino)-propan-2-ol] | 0.067 mg/kg | 487 | 28.2 | 4.4 | 32.7 mg/kg | 123.2 |
| CCCCCOc1ccc(OCC(O)CNC(C)CC(O)c2ccc(C)nc2)cc1 (centres unmarked) [1-(4-n-Pentyloxy-phenoxy)-3-(1-[6-methyl-pyridyl-3]-1-hydroxy-butyl-(3)-amino)-propan-2-ol] | 0.057 mg/kg | 136 | 29.9 | 1.2 | 7.74 mg/kg | 29.2 |
| Cc1ccc(C(O)CC(C)NCC(O)COc2ccc(Br)cc2)cn1 (centres unmarked) [1-(4-Bromo-phenoxy)-3-(1-[6-methyl-pyridyl-3]-1-hydroxy-butyl-(3)-amino)-propan-2-ol] | 0.074 mg/kg | – | 31.1 | – | – | – |

— US3969363A, “Derivatives of 1-phenoxy-3-amino-propan-2-ol and process for their production” (Cassella Farbwerke Mainkur Aktiengesellschaft, priority 1973, dated 1976)
